{"source": "paper PMC10281575", "about": "“PfCRT mutations conferring piperaquine resistance in falciparum malaria shape the kinetics of quinoline drug binding and transport” (PLOS Pathogens, 2023)", "key": {"PfCRT^Dd2": {"target": "T1, PfCRT^Dd2 (Plasmodium falciparum, UniProt Q8IBZ9, A220S/I356T/K76T/M74I/N326S/N75E/Q271E/R371I)", "T1 sequence (Q8IBZ9 1-424 M74I/N75E/K76T/A220S/Q271E/N326S/I356T/R371I)": "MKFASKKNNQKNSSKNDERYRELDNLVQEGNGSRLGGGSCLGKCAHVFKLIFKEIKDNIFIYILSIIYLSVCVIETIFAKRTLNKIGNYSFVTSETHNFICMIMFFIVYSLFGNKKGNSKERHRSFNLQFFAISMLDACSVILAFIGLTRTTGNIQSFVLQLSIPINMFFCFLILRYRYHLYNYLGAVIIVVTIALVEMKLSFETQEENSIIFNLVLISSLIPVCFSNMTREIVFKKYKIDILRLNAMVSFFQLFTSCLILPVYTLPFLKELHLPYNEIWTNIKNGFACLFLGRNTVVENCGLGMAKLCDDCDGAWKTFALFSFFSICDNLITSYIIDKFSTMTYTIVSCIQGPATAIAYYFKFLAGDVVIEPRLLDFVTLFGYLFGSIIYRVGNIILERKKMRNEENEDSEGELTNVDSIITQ", "assay": "Verapamil inhibition of PfCRT-mediated CQ and PPQ transport in oocytes, PfCRT^Dd2", "format": "cell-based", "design": "expressed in transfected cells; host or cells: Xenopus laevis oocytes injected with in vitro transcribed RNA (pSP64T)", "conditions": "individual replicates (S3 Fig)", "procedure": "In all cases, the PfCRT-mediated CQ and PPQ transport was inhibited in the presence of 100 μM verapamil (S3 Fig).\n(§1) Drug transport assays were performed as previously described. Briefly, measurements of radiolabeled drug uptake were made over 1 h, unless otherwise specified. […] Where specified, one or more unlabeled drugs were also present at the indicated concentrations. The direction of drug transport in the assays is from the extracellular medium (pH 6) into the oocyte cytosol (pH 7.2), which corresponds to the efflux of CQ or PPQ from the acidic digestive vacuole (pH 5.2) into the parasite cytosol (pH 7.2). The uptake assays were terminated by removing the oocytes from the reaction medium and washing them three times with 2 mL of ice-cold ND96 buffer. Each oocyte was transferred to a separate scintillation vial and lysed by the addition of 200 μL of a 5% SDS solution. The radioactivity in the sample was measured using a liquid scintillation analyser Tri-Carb 4910 TR (PerkinElmer). Water-injected oocytes were analyzed in parallel as a negative control. The buffer from each condition was measured in duplicate in parallel to each experiment to transform counts per minute into pmol of drug. Drug uptake attributable to PfCRT was determined by subtracting the background uptake from water-injected oocytes from that of PfCRT-expressing oocytes. In all cases, at least three independent experiments were performed on oocytes from different frogs, and for each condition in an experiment, measurements were made from 10 oocytes per treatment.\nSupplementary file ppat.1011436.s006.tif: S3 Fig Verapamil inhibits PfCRT-mediated transport of CQ and PPQ. […] Left panels, data is shown as individual biological replicates (coloured symbols) overlaid onto bars representing the Mean ± S.E.M. (error bars). A one-tailed Student’s t-test was performed between untreated (no VP) and treated (+ 100 μM VP) samples, and the obtained p values are shown. Right panels, the uptake in VP-treated samples was divided by the uptake in their corresponding untreated pairs and subtracted from 100% to get the percentage of uptake inhibition mediated by the presence of 100 μM verapamil in the extracellular medium. Error bars are S.E. (TIF) Click here for additional data file."}, "PfCRT^HB3": {"target": "T2, PfCRT^HB3 (Plasmodium falciparum, UniProt Q8IBZ9)", "T2 construct": "expressed in transfected cells; host or cells: Xenopus laevis oocytes injected with in vitro transcribed RNA (pSP64T)", "T2 sequence (Q8IBZ9 whole entry)": "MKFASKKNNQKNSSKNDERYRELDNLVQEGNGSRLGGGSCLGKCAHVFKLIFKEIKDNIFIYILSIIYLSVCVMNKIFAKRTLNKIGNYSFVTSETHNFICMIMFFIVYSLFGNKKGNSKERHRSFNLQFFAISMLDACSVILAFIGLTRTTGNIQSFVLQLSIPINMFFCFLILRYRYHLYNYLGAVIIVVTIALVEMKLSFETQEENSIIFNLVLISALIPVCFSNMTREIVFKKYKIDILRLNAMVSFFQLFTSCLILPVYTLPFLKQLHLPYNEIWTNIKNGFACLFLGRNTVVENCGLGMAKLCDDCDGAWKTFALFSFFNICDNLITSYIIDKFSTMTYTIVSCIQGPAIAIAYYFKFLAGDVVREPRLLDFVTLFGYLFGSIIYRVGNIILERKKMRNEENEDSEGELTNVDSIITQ", "assay": "Radiolabeled drug uptake in X. laevis oocytes expressing wild type PfCRT^HB3", "format": "cell-based", "conditions": "pH 6.0", "procedure": "Adult female X. laevis frogs (purchased from NASCO) were anesthetized by submersion in a solution of 0.3% (w/v) 3-amino benzoate methanesulfonate for 15 min. Sections of the ovary were surgically removed and placed in Ca^2+-free ND96 buffer supplemented with 0.1% collagenase D (w/v; Roche), 0.5% BSA (w/v) and 9 mM Na2HPO4 at 18°C for 14–16 h while gently shaking. The oocytes were then washed several times with ND96 buffer (5 mM HEPES, pH 7.5, 96 mM NaCl, 2 mM KCl, 1.8 mM CaCl2, 1 mM MgCl2), supplemented with […] gentamycin. Healthy-looking stage V-VI oocytes were manually selected and randomly grouped for injection. A codon-optimized coding sequence of PfCRT was subcloned into the pSP64T expression vector and subsequently linearized using the restriction endonuclease BamHI or SalI (New England Biolabs GmbH). RNA for injection was transcribed in vitro using the mMESSAGE mMACHINE SP6 Transcription kit (Ambion), diluted with nuclease-free water to a final concentration of 0.6 μg/μL and stored at -80°C. RNA was injected using precision-bore glass capillary tubes (3.5-inch glass capillaries; Drummond Scientific Co.), which were pulled on a vertical puller (P-87 Flaming/Brown micropipette puller, Sutter Instrument Co.) and graduated. The micropipettes were connected to a microinjector (Nanoject II Auto-Nanoliter Injector, Drummond Scientific Co.). Injection was conducted under stereomicroscopic control. 50 nL of nuclease-free water alone (control oocytes) or 50 nL of nuclease-free water containing 30 ng of RNA was injected per oocyte. Injected oocytes were kept for 72 h at 18°C in ND96 buffer with two daily buffer changes before being used for further experiments.\nas §1, with “The direction of drug transport in the assays is from the extracellular medium (pH 6) into the oocyte cytosol (pH 7.2), which corresponds to the efflux of CQ or PPQ from the acidic digestive vacuole (pH 5.2) into the parasite cytosol (pH 7.2).” left out"}, "[1]": {"conditions": "50 μM CQ, total uptake, one value per biological replicate"}, "[2]": {"conditions": "50 μM CQ, water-injected uptake subtracted, per replicate"}, "[3]": {"conditions": "50 μM PPQ, total uptake, one value per biological replicate"}, "[4]": {"conditions": "50 μM PPQ, water-injected uptake subtracted, per replicate"}}, "note": "“And” between values parts separate entries of the source, which are not always exact repeats. Equal values may be shown once.", "data": [{"smiles": "CCN(CC)CCCC(C)Nc1ccnc2cc(Cl)ccc12", "note": "(stereo not shown) [CQ, chloroquine]", "values": [{"measurement": "PfCRTDd2-mediated CQ transport", "setting": "PfCRT^Dd2; 50 µM CQ + 100 µM VP", "value": "1.980 pmol oocyte-1 h-1 and 2.230 pmol oocyte-1 h-1 and 2.450 pmol oocyte-1 h-1 and 1.670 pmol oocyte-1 h-1 and 3.620 pmol oocyte-1 h-1"}, {"measurement": "PfCRTDd2-mediated CQ transport", "setting": "PfCRT^Dd2; 50 µM CQ", "value": "3.900 pmol oocyte-1 h-1 and 4.910 pmol oocyte-1 h-1 and 4.760 pmol oocyte-1 h-1 and 7.490 pmol oocyte-1 h-1 and 5.040 pmol oocyte-1 h-1 and 3.980 pmol oocyte-1 h-1 and 10.460 pmol oocyte-1 h-1"}, {"measurement": "PfCRTHB3 uptake of CQ at 10 min", "setting": "PfCRT^HB3; [1]", "value": "3.76 pmol oocyte-1 and 2.69 pmol oocyte-1 and 4.10 pmol oocyte-1 and 2.94 pmol oocyte-1"}, {"measurement": "PfCRTHB3 uptake of CQ at 30 min", "setting": "PfCRT^HB3; [1]", "value": "5.04 pmol oocyte-1 and 6.21 pmol oocyte-1 and 4.82 pmol oocyte-1"}, {"measurement": "PfCRTHB3 uptake of CQ at 60 min", "setting": "PfCRT^HB3; [1]", "value": "10.53 pmol oocyte-1 and 9.06 pmol oocyte-1 and 13.05 pmol oocyte-1 and 9.38 pmol oocyte-1"}, {"measurement": "PfCRTHB3 uptake of CQ at 90 min", "setting": "PfCRT^HB3; [1]", "value": "10.44 pmol oocyte-1 and 13.59 pmol oocyte-1 and 10.43 pmol oocyte-1"}, {"measurement": "PfCRTHB3 uptake of CQ at 120 min", "setting": "PfCRT^HB3; [1]", "value": "15.66 pmol oocyte-1 and 14.17 pmol oocyte-1 and 15.57 pmol oocyte-1"}, {"measurement": "PfCRTHB3 uptake of CQ at 180 min", "setting": "PfCRT^HB3; [1]", "value": "15.78 pmol oocyte-1 and 15.62 pmol oocyte-1 and 19.97 pmol oocyte-1"}, {"measurement": "PfCRTDd2_HB3-mediated CQ uptake at 60 min", "setting": "PfCRT^HB3; [2]", "value": "0.25 pmol oocyte-1 and -1.21 pmol oocyte-1 and 2.78 pmol oocyte-1 and -0.90 pmol oocyte-1"}, {"measurement": "PfCRTHB3-mediated CQ uptake at 10 min", "setting": "PfCRT^HB3; [2]", "value": "0.87 pmol oocyte-1 and -0.20 pmol oocyte-1 and 1.21 pmol oocyte-1 and 0.05 pmol oocyte-1"}, {"measurement": "PfCRTHB3-mediated CQ uptake at 30 min", "setting": "PfCRT^HB3; [2]", "value": "1.16 pmol oocyte-1 and -0.23 pmol oocyte-1 and 0.94 pmol oocyte-1 and -0.44 pmol oocyte-1"}, {"measurement": "PfCRTHB3-mediated CQ uptake at 90 min", "setting": "PfCRT^HB3; [2]", "value": "-0.39 pmol oocyte-1 and 2.75 pmol oocyte-1 and -0.41 pmol oocyte-1"}, {"measurement": "PfCRTHB3-mediated CQ uptake at 120 min", "setting": "PfCRT^HB3; [2]", "value": "0.98 pmol oocyte-1 and -0.51 pmol oocyte-1 and 0.90 pmol oocyte-1"}, {"measurement": "PfCRTHB3-mediated CQ uptake at 180 min", "setting": "PfCRT^HB3; [2]", "value": "-0.99 pmol oocyte-1 and -1.15 pmol oocyte-1 and 3.20 pmol oocyte-1"}]}, {"smiles": "Clc1ccc2c(N3CCN(CCCN4CCN(c5ccnc6cc(Cl)ccc56)CC4)CC3)ccnc2c1", "note": "[PPQ, piperaquine]", "values": [{"measurement": "PfCRTDd2-mediated PPQ transport", "setting": "PfCRT^Dd2; 50 µM PPQ + 100 µM VP", "value": "5.44 pmol oocyte-1 h-1 and 8.16 pmol oocyte-1 h-1 and 20.06 pmol oocyte-1 h-1 and 36.26 pmol oocyte-1 h-1 and 13.97 pmol oocyte-1 h-1"}, {"measurement": "PfCRTDd2-mediated PPQ transport", "setting": "PfCRT^Dd2; 50 µM PPQ", "value": "28.14 pmol oocyte-1 h-1 and 21.87 pmol oocyte-1 h-1 and 89.78 pmol oocyte-1 h-1 and 46.28 pmol oocyte-1 h-1 and 30.01 pmol oocyte-1 h-1 and 33.33 pmol oocyte-1 h-1"}, {"measurement": "PfCRTHB3I PPQ uptake at 30 min", "setting": "PfCRT^HB3; [3]", "value": "72.50 pmol oocyte-1 and 74.50 pmol oocyte-1 and 59.24 pmol oocyte-1"}, {"measurement": "PfCRTHB3 PPQ uptake at 10 min", "setting": "PfCRT^HB3; [3]", "value": "38.64 pmol oocyte-1 and 39.15 pmol oocyte-1 and 28.68 pmol oocyte-1"}, {"measurement": "PfCRTHB3 PPQ uptake at 60 min", "setting": "PfCRT^HB3; [3]", "value": "123.26 pmol oocyte-1 and 113.71 pmol oocyte-1 and 93.83 pmol oocyte-1"}, {"measurement": "PfCRTHB3 PPQ uptake at 90 min", "setting": "PfCRT^HB3; [3]", "value": "136.75 pmol oocyte-1 and 135.43 pmol oocyte-1 and 118.84 pmol oocyte-1"}, {"measurement": "PfCRTHB3 PPQ uptake at 120 min", "setting": "PfCRT^HB3; [3]", "value": "198.78 pmol oocyte-1 and 176.89 pmol oocyte-1 and 174.87 pmol oocyte-1"}, {"measurement": "PfCRTHB3 PPQ uptake at 180 min", "setting": "PfCRT^HB3; [3]", "value": "161.64 pmol oocyte-1 and 186.48 pmol oocyte-1 and 220.34 pmol oocyte-1"}, {"measurement": "PfCRTHB3-mediated PPQ uptake at 10 min", "setting": "PfCRT^HB3; [4]", "value": "8.47 pmol oocyte-1 and 8.98 pmol oocyte-1 and -1.48 pmol oocyte-1"}, {"measurement": "PfCRTHB3-mediated PPQ uptake at 30 min", "setting": "PfCRT^HB3; [4]", "value": "7.50 pmol oocyte-1 and 9.50 pmol oocyte-1 and -5.76 pmol oocyte-1"}, {"measurement": "PfCRTHB3-mediated PPQ uptake at 60 min", "setting": "PfCRT^HB3; [4]", "value": "17.15 pmol oocyte-1 and 7.60 pmol oocyte-1 and -12.28 pmol oocyte-1"}, {"measurement": "PfCRTHB3-mediated PPQ uptake at 90 min", "setting": "PfCRT^HB3; [4]", "value": "16.35 pmol oocyte-1 and 15.03 pmol oocyte-1 and -1.56 pmol oocyte-1"}, {"measurement": "PfCRTHB3-mediated PPQ uptake at 120 min", "setting": "PfCRT^HB3; [4]", "value": "-20.70 pmol oocyte-1 and -22.71 pmol oocyte-1 and 1.19 pmol oocyte-1"}, {"measurement": "PfCRTHB3-mediated PPQ uptake at 180 min", "setting": "PfCRT^HB3; [4]", "value": "33.25 pmol oocyte-1 and -25.45 pmol oocyte-1 and -0.62 pmol oocyte-1"}]}]}
